Laboratory results from the supplement of paper PMC10307832.

Assays:
Assay in all cases: relative viability (nuclei count vs DMSO), 5 days (fraction); higher = more cells survive
Bosutinib + Bortezomib = compound: COc1cc(Nc2c(C#N)cnc3cc(OCCCN4CCN(C)CC4)c(OC)cc23)c(Cl)cc1Cl [Bosutinib] + CC(C)C[C@H](NC(=O)[C@H](Cc1ccccc1)NC(=O)c1cnccn1)B(O)O [Bortezomib] (partner 0.002 µM)
Method in brief: (§1)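 Each reported value is a median over duplicate plates. It expresses relative viability: treated-well nuclei count divided by vehicle-well nuclei count. Lung cancer cell lines in 1536-well plates were dosed by pin tool a day after seeding, alone with one drug or with a fixed anchor-drug dose plus five library-drug doses (not always all listed) in √10 steps, and nuclei were counted after 5 days.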

Bosutinib + Luminespib = compound: COc1cc(Nc2c(C#N)cnc3cc(OCCCN4CCN(C)CC4)c(OC)cc23)c(Cl)cc1Cl [Bosutinib] + CCNC(=O)c1noc(-c2cc(C(C)C)c(O)cc2O)c1-c1ccc(CN2CCOCC2)cc1 [Luminespib] (partner 0.01 µM)
Method in brief: as §1

Bosutinib + Foretinib = compound: COc1cc(Nc2c(C#N)cnc3cc(OCCCN4CCN(C)CC4)c(OC)cc23)c(Cl)cc1Cl [Bosutinib] + COc1cc2c(Oc3ccc(NC(=O)C4(C(=O)Nc5ccc(F)cc5)CC4)cc3F)ccnc2cc1OCCCN1CCOCC1 [Foretinib] (partner 0.25 µM)
Method in brief: as §1

Bosutinib + Tozasertib = compound: COc1cc(Nc2c(C#N)cnc3cc(OCCCN4CCN(C)CC4)c(OC)cc23)c(Cl)cc1Cl [Bosutinib] + Cc1cc(Nc2cc(N3CCN(C)CC3)nc(Sc3ccc(NC(=O)C4CC4)cc3)n2)n[nH]1 [Tozasertib] (partner 0.1 µM)
Method in brief: as §1

Bosutinib + Vorinostat = compound: COc1cc(Nc2c(C#N)cnc3cc(OCCCN4CCN(C)CC4)c(OC)cc23)c(Cl)cc1Cl [Bosutinib] + O=C(CCCCCCC(=O)Nc1ccccc1)NO [Vorinostat] (partner 1 µM)
Method in brief: as §1

| Cell Line | relative viability (Bosutinib + Bortezomib; first compound 0.01 µM) | relative viability (Bosutinib + Bortezomib; first compound 0.03162 µM) | relative viability (Bosutinib + Bortezomib; first compound 0.1 µM) | relative viability (Bosutinib + Bortezomib; first compound 1 µM) | relative viability (Bosutinib + Luminespib; first compound 0.01 µM) | relative viability (Bosutinib + Luminespib; first compound 0.03162 µM) | relative viability (Bosutinib + Luminespib; first compound 0.1 µM) | relative viability (Bosutinib + Luminespib; first compound 1 µM) | relative viability (Bosutinib + Foretinib; first compound 0.01 µM) | relative viability (Bosutinib + Foretinib; first compound 0.03162 µM) | relative viability (Bosutinib + Foretinib; first compound 0.1 µM) | relative viability (Bosutinib + Foretinib; first compound 1 µM) | relative viability (Bosutinib + Tozasertib; first compound 0.01 µM) | relative viability (Bosutinib + Tozasertib; first compound 0.03162 µM) | relative viability (Bosutinib + Tozasertib; first compound 0.1 µM) | relative viability (Bosutinib + Tozasertib; first compound 1 µM) | relative viability (Bosutinib + Vorinostat; first compound 0.01 µM) | relative viability (Bosutinib + Vorinostat; first compound 0.03162 µM) | relative viability (Bosutinib + Vorinostat; first compound 0.1 µM) | relative viability (Bosutinib + Vorinostat; first compound 1 µM) |
| --- | --- | --- | --- | --- | --- | --- | --- | --- | --- | --- | --- | --- | --- | --- | --- | --- | --- | --- | --- | --- |
| EKVX | 1.18 | 1.05 | 0.982 | 0.713 | 0.799 | 0.914 | 0.834 | 0.633 | 0.723 | 0.82 | 0.693 | 0.469 | 0.373 | 0.379 | 0.355 | 0.236 | 0.645 | 0.73 | 0.747 | 0.629 |
| EMC-BAC-2 | 1.03 | 0.943 | 1.07 | 1.06 | 1.22 | 1.07 | 1.17 | 1.04 | 1.02 | 0.981 | 1.06 | 0.768 | 0.287 | 0.291 | 0.311 | 0.282 | 0.427 | 0.713 | 0.831 | 0.396 |
| EPLC-272H | 0.76 | 0.817 | 0.911 | 0.9 | 0.149 | 0.932 | 0.649 | 0.278 | 0.657 | 0.677 | 0.704 | 0.58 | 0.307 | 0.339 | 0.347 | 0.351 | 0.601 | 0.464 | 0.477 | 0.321 |
| H3255 | 0.659 | 0.774 | 0.85 | 0.493 | 1.11 | 0.912 | 0.866 | 0.784 | 0.835 | 0.885 | 0.969 | 0.79 | 0.696 | 0.645 | 0.719 | 0.326 |  | 0.832 | 0.858 | 0.768 |
